In one data set the test system is NTHi strain 1128. The data set can be described thus: Nasopharyngeal colonization by NTHi in immunized chinchillas (nasopharyngeal lavage). It is filed as in vivo, chinchilla. How it is done:
Nasopharyngeal colonization by NTHi was/were examined in two separate trials, study A and study B.
In study A, five cohorts of four chinchillas each were actively immunized with one of the following preparations: in complete Freund's adjuvant or a saline control preparation; 100 μg of the synthetic chimeric fimbrin peptide LB1, 100 μg of a total outer membrane protein preparation from strain #1128; 100 μg of the synthetic chimeric fimbrin peptide LB2; 10 μg isolated fimbrin protein preparation from strain #1128. The total outer membrane preparation and fimbrin were assessed for endotoxin content prior to their use as an immunogen via a chromogenic Amoebocyte Lysate assay which is commercially available from Whittaker Bioproducts under the designation QCL-1000. The preparations were subcutaneously injected into the chinchillas.
Then 30 days later the animals received a booster of one-half of the initial dosage of the same immunogen but in incomplete Freund's adjuvant. Ten days later they received 6×10^6 TCID50 adenovirus intranasally. Thereafter, these five cohorts were divided into two groups each and challenged intranasally, about 5×10^7cfu of NTHi strain 1128. The chinchillas were subject to nasopharyngeal lavage over a 21 day period, and the lavage fluid was examined and quantified for NTHi. The NTHi concentration was determined by plating on selective media. The NTHi lavage fluid concentration was plotted over time.
Again, the NTHi lavage fluid concentration was plotted over time.

Data set [1] has as its target T1, NTHi #1128 fimbrial protein (Haemophilus influenzae, UniProt P45996).
T1 construct: isolated, reassembled, homologous fimbrial protein from NTHi; endogenous in cells; host or cells: NTHi strain #1128 (protein isolated from the bacterial outer membrane)
T1 sequence (P45996 22-359): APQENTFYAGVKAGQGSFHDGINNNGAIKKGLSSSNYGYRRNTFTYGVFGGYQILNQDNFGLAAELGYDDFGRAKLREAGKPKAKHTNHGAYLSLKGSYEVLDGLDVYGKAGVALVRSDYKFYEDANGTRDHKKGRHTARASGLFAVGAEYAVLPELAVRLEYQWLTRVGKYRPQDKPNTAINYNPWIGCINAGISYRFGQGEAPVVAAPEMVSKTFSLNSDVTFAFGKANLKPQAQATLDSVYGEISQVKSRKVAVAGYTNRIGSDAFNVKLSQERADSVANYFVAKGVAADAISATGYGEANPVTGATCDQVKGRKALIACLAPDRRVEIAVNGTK
It is filed as in vivo, non-typable Haemophilus influenzae. Particulars: chinchilla sera 2 weeks after second dose; ELISA. How it is done: (§1) The chinchillas received a second dose of 50 μg of either the LB1 or LB2 in incomplete Freund's adjuvant 30 days later. Sera was obtained 2 weeks after the second dose.
For orientation: In an ELISA, binding on a coated surface is turned into a signal by an enzyme label.

The subject of data set [2] is antibodies in sera directed to NTHi. The data set can be described thus: Anti-serum ELISA using synthetic chimeric fimbrin peptides as coating antigen. The class given is binding. The conditions noted are these: peptide as ELISA antigen, chinchilla sera.
Experimental: An anti-serum Elisa was performed by first coating an immulon 1, flat bottom plate containing 96 wells with varied concentrations of LB1 and LB2 according to the dilute checkerboard assay method. The LB1 and LB2 were diluted first in carbonate-bicarbonate buffer at pH 9.6. This coating buffer contained 1.59 g/L NaCO3, 2.93 g/L NaHCO3 at a pH of 9.6. 50 μl of the LB1 or LB2 were added for each well and incubated at 4° C. overnight. After the overnight incubation, the liquid was emptied from the plates and 100 μl per well of 10 mM PBS at pH 7.4 with 0.5% BSA was added, and incubated at 37° C. for 1 hour. Next, the liquid was emptied from the plate and washed three times with 10 mM PBS at pH 7.4 with 0.05% Tween 20 (PBT) at a volume of 250 μl per well. Then the plate was emptied by pounding three times onto paper towels. Next, 50 μl per well of the sera to be assayed was diluted in 10 mM PBS at a pH of 7.4 and added to the plate and incubated at 37° C. for one hour. The liquid was then emptied from the plates and washed three times with 10 mM PBS at pH 7.4 containing 0.05% Tween 20 (PBT) at a volume of 250 μl per well and the plates were pounded three times onto paper towels. Next, 500 μl per well of secondary antibody diluted 1 to 1000 times in PBT was added. Where the sera to be assayed was rabbit, the secondary antibody was HRP chimeric goat anti-rabbit antibody. Where the sera to be assayed was chinchilla sera, then the secondary antibody was HRP protein A. The secondary antibody was incubated at 37° C. for one hour. Next, the liquid was emptied from the plates and washed three times with 10 mM PBS at pH 7.4 containing 0.05% Tween 20. Next, one tablet o-phenylenediamine was suspended in 12 ml citrate phosphate buffer at pH 5.0. The citrate phosphate buffer contained 0.1 M citric acid, 1.0 M Na2HPO4 at pH 5.0. Next 12 μl 30% H2O2 was added to the o-phenylenediamine solution and 100 μl of this mixture was added to each well. The solution was incubated at room temperature in the dark and after 10 minutes, the absorbencies were read at 400 nm. The reaction was stopped at 16 minutes with 100μ per well of 2NH2SO4 and the plates were then read at 490 nm.
The target in data set [3] is T2, NTHi #1128 isolated fimbrin protein (25 and 37 kDa species) (Haemophilus influenzae, UniProt P45996).
T2 construct: isolated, reassembled, homologous fimbrial protein from NTHi; endogenous in cells; host or cells: NTHi strain #1128 (protein isolated from the bacterial outer membrane)
T2 sequence (P45996 22-359): T1 sequence (P45996 22-359)
It is filed as binding, non-typable Haemophilus influenzae. The conditions noted are these: rabbit antisera; fimbrin isolated from NTHi strain #1128.
Experimental: Two rabbits were immunized with the LB1 synthetic chimeric fimbrin peptide and two rabbits were immunized with the LB2 synthetic chimeric fimbrin peptide. Rabbits received an initial immunizing dose of 500 μg of either the LB1 or LB2 in complete Freund's adjuvant. The rabbits received a second dose of 400 μg of the synthetic chimeric fimbrin peptide 21 days later. The rabbits received a third dose of synthetic chimeric fimbrin peptide in complete Freund's adjuvant 42 days later with 400 μg of the same peptide in either incomplete Freud's adjuvant (IFA) or phosphate buffered saline (PBS) (one rabbit per diluent). Sera was obtained 3 weeks after each dose. The sera from each animal was assessed for titer and specificity against LB1, LB2 and fimbrial protein, by both ELISA and Western blot.

In the next data set the test system is NTHi strain #1128. The data set can be described thus: Inhibition of adherence of NTHi to active ciliated chinchilla tracheal mucosal epithelium. The class given is cell-based, non-typable Haemophilus influenzae. The conditions noted are these: dose dependence, 50 and 100 μg/ml. How it is done:
LB1 and LB2 were each added to the lumen of excised 15 chinchilla tracheas and incubated for about 1 hour. Next 10^8cFu NTHi/ml were added to the cultures and incubated for about 1 hour. The tracheas were rinsed, homogenized, diluted and plated onto chocolate agar. The NTHi colonies were then counted.

Data set [4] concerns fimbrin from NTHi #1128 and NTHi #86-028NP. The data set can be described thus: Western immunoblot of chinchilla antisera. The conditions noted are these: for Western immunoblot recognition by antisera of homologous fimbrin / peptides: NTHi #1128 OMP preparation, isolated fimbrin, LB1, LB2; for Western immunoblot recognition by antisera of heterologous fimbrin: NTHi #86-028NP. It is filed as binding, non-typable Haemophilus influenzae.
Source text: FIG. 2A is a western immunoblot of chinchilla anti-LB1 antisera. Lane a contains a mixture of sera and NTHi #1128 enriched OMP preparation. Lane b contains a mixture of sera and isolated fimbrin from NTHi #1128. Lane c contains a mixture of sera and LB1. Lane d contains a mixture of sera and LB2. Lane e contains a mixture of sera and NTHi #86-028NP enriched OMP preparation. Lane f contains a mixture of sera and isolated fimbrin from NTHi #86-028NP. The lane marked “Std” contains pre-stained molecular mass markers; mass in kDa is given along left side of immunoblot.
FIG. 2B is a western immunoblot of chinchilla anti-LB2 antisera. Lane a contains a mixture of sera and NTHi #1128 enriched OMP preparation. Lane b contains a mixture of sera and isolated fimbrin from NTHi #1128. Lane c contains a mixture of sera and LB1. Lane D contains a mixture of sera and LB2. Lane e contains a mixture of sera and NTHi #86-028NP enriched OMP preparation. Lane f contains a mixture of sera and isolated fimbrin from NTHi #86-028NP. The lane marked “Std” contains pre-stained molecular mass markers; mass in kDa is given along left side of immunoblot.
FIG. 2C is a western immunoblot of chinchilla anti-fimbrial protein antisera. Lane a contains a mixture of sera and NTHi #1128 enriched OMP preparation. Lane b contains a mixture of sera and isolated fimbrin from NTHi #1128. Lane c contains a mixture of sera and LB1. Lane d contains a mixture of sera and LB2. Lane e contains a mixture of sera and NTHi #86-028NP enriched OMP preparation. Lane f contains a mixture of sera and isolated fimbrin from NTHi #86-028NP. The lane marked “Std” contains pre-stained molecular mass markers; mass in kDa is given along left side of immunoblot.
as §1
On the technique in general: In western blotting, separated proteins are transferred to a membrane and probed.

The next data set is described as follows: Solubility in water. It is filed as physicochemical.
Data set [5] has as its system native fimbriae of whole, unfixed NTHi strain #1128. The data set can be described thus: Indirect immunogold labeling of unfixed NTHi with chinchilla antiserum (transmission electron micrograph). It is filed as binding, non-typable Haemophilus influenzae. The text has this: FIG. 3 is a transmission electron micrograph of two unfixed NTHi strain #1128 cells, shown at bottom of the Figure, which were indirectly immuno-labeled with chinchilla anti-LB1IFA serum and 10 nm gold-chimeric Protein A.
Two unfixed NTHi strain #1128 cells were indirectly immunolabeled with chinchilla anti-LB1IFA serum and 10 nm gold-chimeric Protein A. The preparation was subjected to stable, low-angle shadow casting with platinum and palladium to impart a sense of height to low-profile fimbriae.

Where [6] appears, read: study A, chinchillas immunized with 100 μg peptide plus booster, intranasal challenge about 5×10^7 cfu NTHi strain 1128, FIG. 4.
The mark [7] stands for this setting: study B, higher intranasal challenge dose 1.5×10^8 cfu/animal NTHi #1128, FIG. 5.

Converted amounts (≈) assume the structure as drawn. Peptide text beside a SMILES is read from it.

Turning to `CC[C@H](C)[C@H](NC(=O)[C@H](CC(C)C)NC(=O)[C@H](CO)NC(=O)[C@H](CC(C)C)NC(=O)[C@H](CC(C)C)NC(=O)[C@H](CCCCN)NC(=O)[C@H](CC(C)C)NC(=O)[C@H](CO)NC(=O)[C@@H]1CCCN1C(=O)CNC(=O)[C@H](CCCCN)NC(=O)[C@H](CCCCN)NC(=O)[C@H](Cc1c[nH]cn1)NC(=O)[C@H](CC(=O)O)NC(=O)[C@H](CCCNC(=N)N)NC(=O)[C@@H](NC(=O)CNC(=O)[C@H](CC(N)=O)NC(=O)[C@H](C)NC(=O)[C@H](CC(=O)O)NC(=O)[C@H](CCC(=O)O)NC(=O)[C@H](Cc1ccc(O)cc1)NC(=O)[C@H](Cc1ccccc1)NC(=O)[C@H](CCCCN)NC(=O)[C@H](Cc1ccc(O)cc1)NC(=O)[C@H](CC(=O)O)NC(=O)[C@H](CO)NC(=O)[C@@H](N)CCCNC(=N)N)[C@@H](C)O)C(=O)N[C@@H](CCCCN)C(=O)NCC(=O)N[C@H](C(=O)N[C@H](C(=O)N[C@H](C(=O)N[C@@H](Cc1c[nH]cn1)C(=O)N[C@@H](CCCNC(=N)N)C(=O)N[C@@H](CC(C)C)C(=O)N[C@@H](CCC(=O)O)C(=O)NCC(=O)N[C@H](C(=O)N[C@@H](CCC(=O)O)C(=O)O)C(C)C)C(C)C)[C@@H](C)CC)C(C)C` [LB1] (H-RSDYKFYEDANGTRDHKKGPSLKLLSLIKGVIVHRLEGVE-OH), the “NTHi in nasopharyngeal lavage fluid by Day 21” value with NTHi strain 1128 (setting [6]) and in the data set with NTHi strain 1128 (setting [7]) was 0 each time. Further, in data set [1], the “Reciprocal Titer of Sera against: NTHi #1128 fimbrial protein” value is given as 15,000. Also, the results for the “Reciprocal Titer” value in data set [2] (post infection) and in data set [2] (pre infection) were above 500 and “≦100”, respectively. Besides, the “Western blot reactivity of antisera with fimbrin” value in data set [3] is “sera reactivity to fimbrin (both molecular weight species) occurred only after immunization”. In addition, the “Effect on inhibition of adherence of NTHi strain #1128 to ciliated chinchilla tracheal epithelium” value with NTHi strain #1128 is given as “dose-dependent effect on inhibition of adherence”. Also, the “Western immunoblot recognition by antisera of homologous fimbrin / peptides” value in data set [4] was “only recognized the LB1”. Moreover, the solubility (usually the dissolved amount per volume that the medium holds) in the data set “Solubility in water” was around 10000 µg/mL (≈ 2190 µM).

For `CC[C@H](C)[C@H](NC(=O)[C@H](CC(C)C)NC(=O)[C@H](CO)NC(=O)[C@H](CC(C)C)NC(=O)[C@H](CC(C)C)NC(=O)[C@H](CCCCN)NC(=O)[C@H](CC(C)C)NC(=O)[C@H](CO)NC(=O)[C@@H]1CCCN1C(=O)CNC(=O)[C@@H](NC(=O)[C@H](CC(N)=O)NC(=O)[C@@H]1CCCN1C(=O)[C@H](CCCCN)NC(=O)[C@H](CC(=O)O)NC(=O)[C@H](CCC(N)=O)NC(=O)[C@@H]1CCCN1C(=O)[C@H](CCCNC(=N)N)NC(=O)[C@H](Cc1ccc(O)cc1)NC(=O)[C@H](CCCCN)NC(=O)CNC(=O)[C@@H](NC(=O)[C@H](CCCNC(=N)N)NC(=O)[C@@H](NC(=O)[C@H](CC(C)C)NC(=O)[C@H](Cc1c[nH]c2ccccc12)NC(=O)[C@H](CCC(N)=O)NC(=O)[C@@H](N)Cc1ccc(O)cc1)[C@@H](C)O)C(C)C)[C@@H](C)O)C(=O)N[C@@H](CCCCN)C(=O)NCC(=O)N[C@H](C(=O)N[C@H](C(=O)N[C@H](C(=O)N[C@@H](Cc1c[nH]cn1)C(=O)N[C@@H](CCCNC(=N)N)C(=O)N[C@@H](CC(C)C)C(=O)N[C@@H](CCC(=O)O)C(=O)NCC(=O)N[C@H](C(=O)N[C@@H](CCC(=O)O)C(=O)O)C(C)C)C(C)C)[C@@H](C)CC)C(C)C` [LB2] (H-YQWLTRVGKYRPQDKPNTGPSLKLLSLIKGVIVHRLEGVE-OH), the “Recognition of native fimbriae by antiserum (immunogold labeling)” value in data set [5] is given as “Equivalent results”. The entries for the “NTHi in nasopharyngeal lavage fluid by Day 21” value in the data set on NTHi strain 1128 (setting [6]) and in the data set with NTHi strain 1128 (setting [7]) were 0 and “performed less well”, respectively. Moreover, the “Reciprocal Titer of Sera against: NTHi #1128 fimbrial protein” value in data set [1] is recorded as 10,000. The figures for the “Reciprocal Titer” value in data set [2] (post infection) and in data set [2] (pre infection) were 500 and “≦100”, respectively. For the same molecule, the “Western immunoblot recognition by antisera of heterologous fimbrin” value in data set [4] was “recognized heterologous fimbrin contained in the outer membrane preparation”. Further, the “Western immunoblot recognition by antisera of homologous fimbrin / peptides” value in data set [4] is given as “recognized homologous fimbrin”. In the data set “Solubility in water”, this molecule had a solubility of around 10000 µg/mL (≈ 2180 µM).

B1: fimbrin: isolated fimbrin protein preparation from NTHi strain #1128, used as comparison immunogen (protein)
chain: T1 sequence (P45996 22-359)
As to B1, in data set [4], the “Western immunoblot recognition by antisera of heterologous fimbrin” value is listed as “recognizes a heteroloous fimbrin” and the “Western immunoblot recognition by antisera of homologous fimbrin / peptides” value is “recognizes itself”.

These data come from patent publication US7790172B2, “Methods for reducing nasopharyngeal colonization of non-typable Haemophilus influenzae with synthetic chimeric fimbrin peptides” (priority 1995, dated 2010).
